Data taken from paper PMC4788153, “Impact of Cytochrome P450 2D6 Function on the Chiral Blood Plasma Pharmacokinetics of 3,4-Methylenedioxymethamphetamine (MDMA) and Its Phase I and II Metabolites in Humans” (PLoS ONE, 2016).
Read-outs that look alike come from different tables or passages of the source.

Key:
[1] = Chiral plasma pharmacokinetics of bupropion and hydroxybupropion; conditions: for effect of MDMA co-administration on plasma concentrations: bupropion+MDMA vs bupropion+placebo; for half-life: both, human, plasma, oral
DAT [2] = conditions: cited from earlier work
[3] = parameters: method as in ref [46] (a number printed in a supplementary file, which may have a reference list of its own: not looked up in the article's list); conditions: ref [46]; cited from earlier work
DAT [4] = test system: DAT; parameters: method as in ref [15] (a number printed in a supplementary file, which may have a reference list of its own: not looked up in the article's list); conditions: rat synaptosomes, without bupropion; ref [15]; read-out: EC50 of DAT-mediated amphetamine-induced DA release; cited from earlier work
[5] = 125 mg single dose; ref [3, 61]; cited from earlier work
[6] = Chiral plasma pharmacokinetics of MDMA and its phase I and II metabolites after controlled MDMA administration; assay type: in vivo, human
Experimental: Blood plasma samples were analyzed non-stereoselectively as reported previously and reanalyzed for the present report using liquid chromatography-mass spectrometry/mass spectrometry after chiral derivatization with Marfey’s reagent as described previously. The method was fully validated, including selectivity, recovery, matrix effects, bias and imprecision, stability, and limit of quantification.

serotonin transporter = conditions: four weeks after MDMA 1.5-1.7 mg/kg, MDMA-naïve volunteers; ref [123, 124]; cited from earlier work
[7] = bupropion vs placebo pretreatment

## C[C@H]1NC(C)(C)CO[C@]1(O)c1cccc(Cl)c1 [R,R-hydroxybupropion, hydroxybupropion]
[1]
  effect of MDMA co-administration on plasma concentrations: did not significantly alter

## CC(NC(C)(C)C)C(=O)c1cccc(Cl)c1 (stereo not drawn) [bupropion]
DAT [2]; 150 mg twice-daily, 3 h after last dose, 11C-βCIT-FE PET, ref [16]
  DAT occupancy in the human striatum: 26%
DAT [2]; 2.5 h after single 150 mg, 11C-raclopride PET, ref [83]
  striatal DAT occupancy: no significant
[3]
  T1/2: 20 h

## C[C@@H](NC(C)(C)C)C(=O)c1cccc(Cl)c1 [R-bupropion, bupropion]
[1]; 300 mg, t1/2 R/ R,R, bupropion+placebo (P), CYP2B6 genotype normal
  half-life: 8.4 h
[1]; 300 mg, t1/2 R/ R,R, bupropion+placebo (P), CYP2B6 genotype reduced
  half-life: 8.9 h
[1]; t1/2 R/ R,R, bupropion+MDMA (M), CYP2B6 genotype normal
  half-life: 8.5 h
[1]; t1/2 R/ R,R, bupropion+MDMA (M), CYP2B6 genotype reduced
  half-life: 7.5 h
[1]
  effect of MDMA co-administration on plasma concentrations: did not significantly alter

## CNC(C)Cc1ccc2c(c1)OCO2 (stereo not drawn) [MDMA, 3,4-methylenedioxymethamphetamine]
[5]
  T1/2: 9.6 h
  Tmax: 2.5 h
[6]; CYP2D6 inhibition by bupropion
  mean overall effect on R/S ratios: less than 10%
[6]; [7]
  change of R/S ratio for AUC24 after bupropion pretreatment: -9%
  change of R/S ratio for Cmax after bupropion pretreatment: -6%
Serotonin transporter
  change in serotonin transporter density: No changes

## C[C@H](NC(C)(C)C)C(=O)c1cccc(Cl)c1 [S-bupropion, bupropion]
[1]; 300 mg, t1/2 S/ S,S, bupropion+placebo (P), CYP2B6 genotype normal
  half-life: 7.3 h
[1]; 300 mg, t1/2 S/ S,S, bupropion+placebo (P), CYP2B6 genotype reduced
  half-life: 7.8 h
[1]; t1/2 S/ S,S, bupropion+MDMA (M), CYP2B6 genotype normal
  half-life: 7.5 h
[1]; t1/2 S/ S,S, bupropion+MDMA (M), CYP2B6 genotype reduced
  half-life: 6.8 h
[1]
  effect of MDMA co-administration on plasma concentrations: did not significantly alter
